# Laboratory results: patent publication US12528792B2, “Sulfonamide compounds and the use thereof in the treatment of cancer” (TROBIO THERAPEUTICS PTY LTD, priority 2019, dated 2026)
# Key:
# F-actin/Tpm3.1 = F-actin/Tpm3.1 (Homo sapiens, UniProt P06753); assay: Actin depolymerisation assay; assay type: biochemical; settings: 50 μmol/L test compound, FIG. 1
# Experimental: A 12 μmol/L solution of labelled F-actin was prepared by polymerising the monomeric actin (35% pyrene labelled Rabbit Muscle (Cytoskeleton Inc)) into filaments in the presence of buffer T (100 mmol/L NaCl; 10 mmol/L Tris HCl PH 7.5; 2 mmol/L MgCl2; 1 mmol/L EGTA; 0.5 mmol/L DTT) with added ATP (0.2 mmol/L), for 1 hour in the dark at room temperature. Tpm3.1 (10 μmol/L) was reduced in buffer T containing 1 mmol/L DTT at 70° C. for 6 minutes and centrifuged at 60,000 rpm for 30 minutes to remove nonreduced dimers. […] Duplicate samples were diluted 12-fold using an F-actin polymerisation buffer (100 mmol/L NaCl; 10 mmol/L Tris HCl PH 7; 2 mmol/L MgCl2; 1 mmol/L EGTA; 0.2 mmol/L ATP; 1 mmol/L DTT) and the depolymerisation rates of F-actin alone, F-actin/Tpm3.1, and the F-actin/Tpm3.1/test compound filament complex were measured using a Costar 3915 fluorescence plate reader (407 nm) at 36-second intervals for 160 minutes at room temperature. Data were normalized to the initial fluorescence value and polymerisation curves of duplicate samples were fitted to a two-phase exponential decay model using OriginPro 9.1 (OriginLab) (FIG. 1A). Percent polymerisation was determined at t160 as a function of to (100%) (FIG. 1B, p<0.0001).
# [1] = molecular target: T1, Tpm3.1-containing actin microfilaments in SK-N-SH neuroblastoma cells (Homo sapiens, UniProt P06753); assay: Imaging and quantitation of Tpm3.1 mCherry and 488-Atto-Phalloidin actin filaments; assay type: cell-based; settings: 24 hours post-treatment, two concentrations, FIG. 2 and FIG. 3
# T1 construct: expressed in transfected cells; host or cells: SK-N-SH neuroblastoma cells
# T1 sequence (P06753 1-248 isoform P06753-2): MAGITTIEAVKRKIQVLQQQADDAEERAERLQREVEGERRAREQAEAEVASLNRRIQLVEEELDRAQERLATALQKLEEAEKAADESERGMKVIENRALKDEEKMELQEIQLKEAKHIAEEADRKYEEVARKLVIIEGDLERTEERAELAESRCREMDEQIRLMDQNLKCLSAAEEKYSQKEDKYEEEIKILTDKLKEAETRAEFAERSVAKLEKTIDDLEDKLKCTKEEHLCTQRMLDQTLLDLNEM
# Experimental: The ability of compounds 24, 26 and 143 to disrupt Tpm3.1-containing actin microfilaments was investigated in SK—N—SH neuroblastoma cells that express Tpm3.1 labelled with the mCherry fluorophore. Cells were seeded at 3×10^4 cells per well in a volume of 1000 μL complete media onto a 12 well plate containing 13 mm coverslips and left to plate down for 24 hours prior to treatment. Cells were then treated with DMSO and two concentrations of the test compounds. 24 hours post-treatment, cells were fixed with 16% paraformaldehyde (PBS) and stained with 488-Atto-Phalloidin to visualise the actin filament bundles. Single plane images were obtained using the Olympus IX83 epi-fluorescence microscope. Ten fields of view were collected for both Tpm3.1 mCherry fluorophore (FIG. 2) and 488-Atto-Phalloidin (FIG. 3) with each treatment condition.
# Quantitation of either Tpm3.1 mCherry filaments or 488-Atto-Phalloidin filaments was performed using ImageJ 1.52p software (ImageJ, NIH). The mean pixel intensity from a cell was measured by using a line across the entire cell cytoplasmic area above or below the nuclear region. The line was made to cross the filament bundles at a 90° angle for the measurement rather than run along a single filament. A total of n=100 cells were measured from ten fields of view. […]
smiles,measurement,setting,value
"O=C(Nc1ccc(C(F)(F)F)cc1)c1ccn(S(=O)(=O)c2ccc3[nH]ccc3c2)c1 [Compound 26, 1-((1H-indol-5-yl)sulfonyl)-N-(4-(trifluoromethyl)phenyl)-1H-pyrrole-3-carboxamide]",Inhibition of Tpm3.1 protection of actin filaments from depolymerisation,F-actin/Tpm3.1,inhibit the ability of Tpm3.1 to protect actin filaments from depolymerisation
same,Disruption of Tpm3.1-containing actin microfilaments,[1],disrupt Tpm3.1-containing actin microfilaments in a dose-dependent manner
